Test results reported in US20110201603A1, “Novel Acylaminobenzamide Derivatives” (Bayer CropScience AG, priority 2008, published 2011).

What was measured:
Type in all cases: in vivo
[1] = tested on: two-spotted spider mite (Tetranychus urticae); assay: Test against two-spotted spider mite (Tetranychus urticae), spray; settings: concentration of 100 ppm; adult mites on kidney beans; after 7 days
Protocol: (§1) Unless not mentioned otherwise, the test solutions were prepared as follows:
(§2) Containing as solvent: Dimethylformamide, 3 parts by weight; and as emulsifier: Polyoxyethylene alkyl phenyl ether, 1 part by weight
(§3) To prepare the test solution, 1 part by weight of an active compound is mixed with the above-mentioned amount of solvent containing the above-mentioned amount of emulsifier, and the mixture is diluted with water to the desired concentration.
50 to 100 adult two-spotted spider mites were inoculated onto the leaves of kidney beans at the two-true leaf stage, which plant had been cultivated in a pot having a diameter of 6 cm. After one day, test solution at the appropriate concentration was sprayed thereon in a sufficient amount using a spray gun. After the spraying, the plant pot was placed inside a greenhouse, and after 7 days, the acaricidal activity was calculated. An acaricidal activity of 100% means that all mites were killed, whereas an acaricidal activity of 0% means that no mite was killed.

[2] = tested on: cucurbit leaf beetle (Aulacophora femoralis); assay: Test against cucurbit leaf beetle (Aulacophora femoralis), leaf dip; settings: active compound concentration of 100 ppm; second-instar larvae on cucumber leaves; after 7 days
Protocol: as §1, §2, §3
Cucumber leaves were immersed in the test solution at the appropriate concentration, and the leaves were dried in air. The leaves were then placed in a plastic cup containing sterilized black soil, and five second-instar larvae of cucurbit leaf beetle were released therein. The plastic cup was placed in a temperature-controlled chamber at 25° C. After 7 days, the number of dead larvae was counted, and thus the insecticidal activity was calculated. An insecticidal activity of 100% means that all beetles were killed, whereas an insecticidal activity of 0% means that no beetle was killed.

[3] = tested on: tobacco cutworm (Spodoptera litura) larvae; assay: Test against tobacco cutworm (Spodoptera litura) larvae, leaf dip; settings: active compound concentration of 100 ppm; third-instar larvae on sweet potato leaves; after 7 days
Protocol: as §1, §2, §3
The leaves of sweet potato were immersed in the test solution at the appropriate concentration, and the leaves were dried in air. The leaves were then placed in a petri dish having a diameter of 9 cm, and ten third-instar larvae of tobacco cutworm were released therein. The petri dish was placed in a temperature-controlled chamber at 25° C. After 2 days and 4 days sweet potato leaves were additionally added. After 7 days, the number of dead larvae was counted to calculate the insecticidal activity. An insecticidal activity of 100% means that all larvae were killed, whereas an insecticidal activity of 0% means that no larva was killed. In the current test, the results of two petri dishes for each partition were averaged.

Row | Structure (SMILES) | acaricidal activity rate [1] | insecticidal activity [2] | insecticidal activity [3]
1 | CC(c1cc(Br)c(NC(=O)c2cccc(NC(=O)c3cccnc3F)c2)c(Br)c1)(n1cc(Br)cn1)C(F)(F)F (stereo not drawn) [2-82] | 100% | 100% | 100%
2 | CC#CCOC(c1cc(I)c(NC(=O)c2cccc(NC(=O)c3ccc(F)cc3)c2)c(I)c1)(C(F)(F)F)C(F)(F)F [1-84] |  | 100% | 100%
3 | Cc1cc(C(n2cnc(C(F)(F)F)n2)(C(F)(F)F)C(F)(F)F)cc(C)c1NC(=O)c1cccc(NC(=O)c2cccnc2Cl)c1 [2-153] |  | 100% | 100%
4 | O=C(Nc1c(Br)cc(C(n2cc(Cl)cn2)(C(F)(F)F)C(F)(F)F)cc1Br)c1cccc(NC(=O)c2ccccc2F)c1 [2-33] |  | 100% | 100%
5 | CCc1cc(C(n2cc(Cl)cn2)(C(F)(F)F)C(F)(F)F)cc(C)c1NC(=O)c1cccc(NC(=O)c2cccnc2Cl)c1 [2-55] | 100% | 100% | 100%
6 | Cc1cc(C(Oc2ccc(Br)cc2)(C(F)(F)F)C(F)(F)F)cc(C)c1NC(=O)c1cccc(NC(=O)c2cccnc2Cl)c1 [1-166] |  | 100% | 100%
7 | O=C(Nc1c(Br)cc(C(CF)(n2cc(Cl)cn2)C(F)(F)F)cc1Br)c1cccc(NC(=O)c2cccnc2Cl)c1 (stereo not drawn) [2-24] | 100% | 100% | 100%
8 | Cc1cc(C(n2cc(Cl)cn2)(C(F)(F)F)C(F)(F)F)cc(Br)c1NC(=O)c1cccc(NC(=O)c2c(F)cccc2F)c1 [2-41] |  | 100% | 100%
9 | CCc1cc(C(Oc2ccc(Br)cc2)(C(F)(F)F)C(F)(F)F)cc(CC)c1NC(=O)c1cccc(NC(=O)c2cccnc2Cl)c1 [1-177] |  | 100% | 100%
10 | O=C(Nc1c(I)cc(C(n2cc(Cl)cn2)(C(F)(F)F)C(F)(F)F)cc1I)c1cccc(NC(=O)c2cccnc2Cl)c1 [2-63] |  | 100% | 100%
11 | Cc1cc(C(Oc2ccc(Cl)nc2)(C(F)(F)F)C(F)(F)F)cc(C)c1NC(=O)c1cccc(NC(=O)c2cccnc2Cl)c1 [1-182] |  | 100% | 100%
12 | O=C(Nc1c(Br)cc(C(n2cc(Cl)cn2)(C(F)(F)F)C(F)(F)F)cc1Br)c1cccc(NC(=O)c2cccnc2Cl)c1 [2-62] | 100% | 100% | 100%
13 | CCc1cc(C(Oc2ccc(Br)cc2)(C(F)(F)F)C(F)(F)F)cc(C)c1NC(=O)c1cccc(NC(=O)c2cccnc2Cl)c1 [1-129] |  | 100% | 100%
14 | CCc1cc(C(n2cc(C(F)(F)F)cn2)(C(F)(F)F)C(F)(F)F)cc(C)c1NC(=O)c1cccc(NC(=O)c2cccnc2Cl)c1 [2-105, 2-chloro-N-{3-[(2-ethyl-4-{1,1,1,3,3,3-hexafluoro-2-[4-(trifluoromethyl)-1H-pyrazol-1-yl]propan-2-yl}-6-methylphenyl)carbamoyl]-phenyl}pyridine-3-carboxamide] |  | 100% | 100%
15 | CCc1cc(C(Oc2ccc(Cl)cn2)(C(F)(F)F)C(F)(F)F)cc(C)c1NC(=O)c1cccc(NC(=O)c2cccnc2Cl)c1 [1-173] |  | 100% | 100%
16 | Cc1cc(C(n2cc(I)c(I)n2)(C(F)(F)F)C(F)(F)F)cc(C)c1NC(=O)c1cccc(NC(=O)c2cccnc2Cl)c1 [2-116] |  | 100% | 100%
17 | CCOC(c1cc(I)c(NC(=O)c2cccc(NC(=O)c3ccc(Cl)nc3Cl)c2)c(I)c1)(C(F)(F)F)C(F)(F)F [1-61] | 100% | 100% | 
18 | Cc1cc(C(n2nccn2)(C(F)(F)F)C(F)(F)F)cc(C)c1NC(=O)c1cccc(NC(=O)c2cccnc2Cl)c1 [2-147] |  | 100% | 100%
19 | CCCOC(c1cc(I)c(NC(=O)c2cccc(NC(=O)c3ccc(Cl)nc3Cl)c2)c(I)c1)(C(F)(F)F)C(F)(F)F [1-64] | 100% |  | 
20 | O=C(Nc1c(I)cc(C(n2cc(Cl)cn2)(C(F)(F)F)C(F)(F)F)cc1I)c1cccc(NC(=O)c2ccccc2F)c1 [2-34] |  | 100% | 100%
21 | CC#CCOC(c1cc(I)c(NC(=O)c2cccc(NC(=O)c3cccnc3Cl)c2)c(I)c1)(C(F)(F)F)C(F)(F)F [1-85] |  | 100% | 100%

Row | Structure (SMILES) | acaricidal activity rate [1] | insecticidal activity [2] | insecticidal activity [3]
22 | CCc1cc(C(n2nc(Br)c(Br)c2Br)(C(F)(F)F)C(F)(F)F)cc(C)c1NC(=O)c1cccc(NC(=O)c2cccnc2Cl)c1 [2-134] |  | 100% | 100%
23 | CCc1cc(C(Oc2ccc(C#N)cc2)(C(F)(F)F)C(F)(F)F)cc(C)c1NC(=O)c1cccc(NC(=O)c2cccnc2Cl)c1 [1-168] |  | 100% | 100%
24 | Cc1cc(C(n2cc(Cl)cn2)(C(F)(F)F)C(F)(F)F)cc(Br)c1NC(=O)c1cccc(NC(=O)c2cccnc2Cl)c1 [2-59] |  | 100% | 100%
25 | CCc1cc(C(n2cnc(Cl)n2)(C(F)(F)F)C(F)(F)F)cc(C)c1NC(=O)c1cccc(NC(=O)c2cccnc2Cl)c1 [2-183] |  | 100% | 100%
26 | CCc1cc(C(Oc2cccc(Cl)c2)(C(F)(F)F)C(F)(F)F)cc(C)c1NC(=O)c1cccc(NC(=O)c2cccnc2Cl)c1 [1-108] |  | 100% | 100%
27 | Cc1cc(C(n2c(Br)nc(Br)c2Br)(C(F)(F)F)C(F)(F)F)cc(C)c1NC(=O)c1cccc(NC(=O)c2cccnc2Cl)c1 [2-144] |  | 100% | 100%
28 | CCc1cc(C(ON=Cc2ccc(Cl)cc2)(C(F)(F)F)C(F)(F)F)cc(C)c1NC(=O)c1cccc(NC(=O)c2cccnc2Cl)c1 [1-138] |  | 100% | 100%
29 | CCc1cc(C(n2cc(Cl)cn2)(C(F)(F)F)C(F)(F)F)cc(C)c1NC(=O)c1cccc(NC(=O)c2cccnc2)c1 [2-42] | 100% |  | 
30 | CCc1cc(C(Oc2ccc(F)cc2)(C(F)(F)F)C(F)(F)F)cc(C)c1NC(=O)c1cccc(NC(=O)c2cccnc2Cl)c1 [1-128] |  | 100% | 100%
31 | Cc1cc(C(Oc2ccc(Cl)cc2)(C(F)(F)F)C(F)(F)F)cc(C)c1NC(=O)c1cccc(NC(=O)c2cccnc2Cl)c1 [1-160] |  | 100% | 100%
32 | CCc1cc(C(Oc2ccnc(C(F)(F)C(F)(F)F)c2)(C(F)(F)F)C(F)(F)F)cc(C)c1NC(=O)c1cccc(NC(=O)c2cccnc2Cl)c1 [1-142] |  | 100% | 100%
33 | CCc1cc(C(Oc2ccc(OC(F)(F)F)cc2)(C(F)(F)F)C(F)(F)F)cc(C)c1NC(=O)c1cccc(NC(=O)c2cccnc2Cl)c1 [1-131] |  | 100% | 100%
34 | Cc1cc(C(n2cccc2Br)(C(F)(F)F)C(F)(F)F)cc(C)c1NC(=O)c1cccc(NC(=O)c2cccnc2Cl)c1 [2-2] |  | 100% | 100%
35 | CCc1cc(C(Oc2ccc(C(F)(F)F)cc2)(C(F)(F)F)C(F)(F)F)cc(C)c1NC(=O)c1cccc(NC(=O)c2cccnc2Cl)c1 [1-130] |  | 100% | 100%
36 | Cc1cc(C(n2nc(Br)c(Br)c2Br)(C(F)(F)F)C(F)(F)F)cc(C)c1NC(=O)c1cccc(NC(=O)c2cccnc2Cl)c1 [2-133] |  | 100% | 100%
37 | Cc1cc(C(n2cc(Cl)cn2)(C(F)(F)F)C(F)(F)F)cc(Br)c1NC(=O)c1cccc(NC(=O)c2ccccc2F)c1 [2-31] |  | 100% | 100%
38 | CCc1cc(C(n2cc(Cl)cn2)(C(F)(F)F)C(F)(F)F)cc(C)c1NC(=O)c1cccc(NC(=O)c2cccnc2F)c1 [2-44] |  | 100% | 100%
39 | CC#CCOC(c1cc(I)c(NC(=O)c2cccc(NC(=O)c3ccccc3)c2)c(I)c1)(C(F)(F)F)C(F)(F)F [1-83] |  | 100% | 100%
40 | Cc1cc(C(n2cnc(Cl)c2Cl)(C(F)(F)F)C(F)(F)F)cc(C)c1NC(=O)c1cccc(NC(=O)c2cccnc2Cl)c1 [2-143] |  | 100% | 100%
41 | CCc1cc(C(Oc2cccnc2)(C(F)(F)F)C(F)(F)F)cc(C)c1NC(=O)c1cccc(NC(=O)c2cccnc2Cl)c1 [1-171] |  | 100% | 100%
